Results from patent US9073912B2, “Azetidine derivatives as antiparasitic agents” (Zoetis LLC, priority 2012, dated 2015).

Tested on: Ctenocephalides felis
Assay: Flea (Ctenocephalides felis) Membrane Feed Assay-Adult
Settings: for minimum effective concentration (MEC): assessed at 24 hours, 10-flea sample; for lethal dose 80% (LD80): adult fleas fed approx. 2 hours on treated citrated bovine blood, knockdown and/or death observed at approx. 2 and 24 hours
Method: Flea (Ctenocephalides felis) Membrane Feed Assay-Adult
Formula (1) compounds were dissolved in DMSO and aliquots added to citrated bovine blood in a membrane covered Petri dish pre-warmed to 37° C. Feeding tubes containing approximately 30-35 adult fleas were placed onto the Petri dishes. The fleas fed for approximately 2 hours. […] Endpoint data is recorded as a lethal dose 80% (LD^80) in μg/mL. […] Further, the results can be assessed at 24 hours based on minimum effective concentration (MEC) in μM with a 10-flea sample.

CS(=O)(=O)CC(=O)N1CC(F)(c2ccc(C3=NCC(c4cc(Cl)cc(Cl)c4)(C(F)(F)F)C3)cc2)C1 (centres unmarked) [Example 1, 1-(3-{4-[4-(3,5-dichloro-phenyl)-4-trifluoromethyl-4,5-dihydro-3H-pyrrol-2-yl]-phenyl}-3-fluoro-azetidin-1-yl)-2-methanesulfonyl-ethanone]
minimum effective concentration (MEC): 3 µM

CC(C)C(=O)N1CC(F)(c2ccc(C3=NCC(c4cc(Cl)cc(Cl)c4)(C(F)(F)F)C3)cc2)C1 (centres unmarked) [Example 2, 1-(3-{4-[4-(3,5-dichloro-phenyl)-4-trifluoromethyl-4,5-dihydro-3H-pyrrol-2-yl]-phenyl}-3-fluoro-azetidin-1-yl)-2-methyl-propan-1-one]
lethal dose 80% (LD80): 0.3 µg/mL
minimum effective concentration (MEC): 1 µM

CS(=O)(=O)CC(=O)N1CC(F)(c2ccc(C3=NCC(c4cc(Cl)c(F)c(Cl)c4)(C(F)(F)F)C3)cc2)C1 (centres unmarked) [Example 3, 3-(3,5-dichloro-4-fluorophenyl)-5-(4-{3-fluoro-1-[(methylsulfonyl)-acetyl]azetidin-3-yl}phenyl)-3-(trifluoromethyl)-3,4-dihydro-2H-pyrrole]
lethal dose 80% (LD80): 3 µg/mL
minimum effective concentration (MEC): 1 µM

CC(C)C(=O)N1CC(F)(c2ccc(C3=NCC(c4cc(Cl)c(F)c(Cl)c4)(C(F)(F)F)C3)cc2)C1 (centres unmarked) [Example 4, 3-(3,5-dichloro-4-fluorophenyl)-5-[4-(3-fluoro-1-isobutyrylazetidin-3-yl)phenyl]-3-(trifluoromethyl)-3,4-dihydro-2H-pyrrole]
minimum effective concentration (MEC): 1 µM

CS(=O)(=O)CC(=O)N1CC(F)(c2ccc(C3=NCC(c4cc(Cl)c(Cl)c(Cl)c4)(C(F)(F)F)C3)cc2)C1 (centres unmarked) [Example 5, 1-(3-fluoro-3-{4-[4-(3,4,5-trichloro-phenyl)-4-trifluoromethyl-4,5-dihydro-3H-pyrrol-2-yl]-phenyl}-azetidin-1-yl)-2-methanesulfonyl-ethanone]
lethal dose 80% (LD80): 1 µg/mL
minimum effective concentration (MEC): 1 µM

CC(C)C(=O)N1CC(F)(c2ccc(C3=NCC(c4cc(Cl)c(Cl)c(Cl)c4)(C(F)(F)F)C3)cc2)C1 (centres unmarked) [Example 6, 5-[4-(3-fluoro-1-isobutyrylazetidin-3-yl)phenyl]-3-(3,4,5-trichloro-phenyl)-3-(trifluoromethyl)-3,4-dihydro-2H-pyrrole]
lethal dose 80% (LD80): 3 µg/mL

CC(C)C(=O)N1CC(F)(c2ccc(C3=NOC(c4cc(Cl)c(F)c(Cl)c4)(C(F)(F)F)O3)cc2)C1 (centres unmarked) [Example 8, 1-(3-{4-[5(3,5-dichloro-4-fluoro-phenyl)-5-trifluoromethyl-[1,4,2]dioxazol-3-yl]-phenyl}-3-fluoro-azetidin-1-yl)-2-methyl-propan-1-one]
minimum effective concentration (MEC): 30 µM

CS(=O)(=O)CC(=O)N1CC(F)(c2ccc(C3=NNC(c4cc(Cl)c(F)c(Cl)c4)(C(F)(F)F)C3)cc2)C1 (centres unmarked) [Example 18, 1-(3-(4-(5-(3,5-dichloro-4-fluorophenyl)-5-(trifluoromethyl)-4,5-dihydro-1H-pyrazol-3-yl)phenyl)-3-fluoroazetidin-1-yl)-2-(methylsulfonyl)ethanone]
minimum effective concentration (MEC): 30 µM
